Values of other authors in patent US20070134395A1, “Method of reducing manganese in defatted soy isolate” (priority 2005, published 2007).
Where two headings read alike, the source gives them in different places.

How the values were obtained:
[1] = neonate, excess Mn not metabolized
[2] = neonate, from soy-based infant formula
[3] = calcium-deficient rat pups

Compound	intestinal absorption of Mn (adults)	intestinal absorption of Mn (neonatal, animal models)	share of excess Mn stored in the basal ganglia region [1]	Mn absorbed above metabolic need [2]	greater amount of Mn in the cerebral column tissue and fluids [3]
[Mn+2] [Mn, Manganese]	one percent to about two percent	seventy percent to about eighty percent	about eight	approximately 1.1 mg	
CC(=O)[O-].CC(=O)[O-].[Mg+2] [magnesium acetate]					900%
